In PubChem BioAssay (NCI):
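Test compounds were applied to cells in 96-well plates for 48 hours at 5 doses. TGI: total growth inhibition.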

Key:
Assay in all cases: inhibition of tumour cell growth, NCI panel, 48 h
[1] = tested on: SK-MEL-2 melanoma
[2] = tested on: ACHN renal
[3] = tested on: MDA-N
[4] = tested on: MDA-MB-435
[5] = tested on: HT29 colon
[6] = tested on: KM12 colon
[7] = tested on: SK-MEL-28 melanoma
[8] = tested on: NCI-H460 lung
[9] = tested on: SK-MEL-5 melanoma
[10] = tested on: OVCAR-5 ovarian
[11] = tested on: MALME-3M melanoma
[12] = tested on: COLO 205 colon
[13] = tested on: IGROV1 ovarian
[14] = tested on: HCT-116 colon
[15] = tested on: T-47D breast
[16] = tested on: HL-60(TB) leukemia
[17] = tested on: NCI-H226 lung
[18] = tested on: OVCAR-8 ovarian
[19] = tested on: BT-549 breast
[20] = tested on: OVCAR-4 ovarian
[21] = tested on: MOLT-4 leukemia
[22] = tested on: HS 578T breast
[23] = tested on: UO-31 renal
[24] = tested on: UACC-257 melanoma
[25] = tested on: SW-620 colon
[26] = tested on: A498 renal
[27] = tested on: UACC-62 melanoma
[28] = tested on: OVCAR-3 ovarian
[29] = tested on: NCI-H23 lung
[30] = tested on: NCI-H522 lung
[31] = tested on: K-562 leukemia
[32] = tested on: NCI/ADR-RES ovarian
[33] = tested on: SF-295 CNS
[34] = tested on: SNB-19 CNS
[35] = tested on: RPMI-8226 leukemia
[36] = tested on: SF-268 CNS
[37] = tested on: HCT-15 colon
[38] = tested on: LOX IMVI melanoma
[39] = tested on: HOP-62 NSCLC
[40] = tested on: A549 NSCLC
[41] = tested on: CAKI-1 renal
[42] = tested on: M14 melanoma
[43] = tested on: MCF7 breast
[44] = tested on: EKVX NSCLC
[45] = tested on: SN12C renal
[46] = tested on: MDA-MB-231 breast
[47] = tested on: TK-10 renal
[48] = tested on: 786-0 renal
[49] = tested on: U251 CNS
[50] = tested on: DU-145 prostate
[51] = tested on: RXF 393 renal
[52] = tested on: PC-3 prostate
[53] = tested on: CCRF-CEM leukemia
[54] = tested on: SF-539 CNS
[55] = tested on: SNB-75 CNS
[56] = tested on: SK-OV-3 ovarian
[57] = tested on: HCC-2998 colon

O=c1[nH]nc(Cc2ccccc2)n1/N=C/c1ccc(/C=N/n2c(Cc3ccccc3)n[nH]c2=O)cc1
TGI [1]: > 100 µM
TGI [2]: > 100 µM
TGI [3]: > 100 µM
TGI [4]: > 100 µM
TGI [5]: > 100 µM
TGI [6]: > 100 µM
TGI [7]: > 100 µM
TGI [8]: > 100 µM
TGI [9]: > 100 µM
TGI [10]: > 100 µM
TGI [11]: > 100 µM
TGI [12]: > 100 µM
TGI [13]: > 100 µM
TGI [14]: > 100 µM
TGI [15]: > 100 µM
TGI [16]: > 100 µM
TGI [17]: > 100 µM
TGI [18]: > 100 µM
TGI [19]: > 100 µM
TGI [20]: > 100 µM
TGI [21]: 47 µM
TGI [22]: > 100 µM
TGI [23]: > 100 µM
TGI [24]: > 100 µM
TGI [25]: > 100 µM
TGI [26]: > 100 µM
TGI [27]: > 100 µM
TGI [28]: > 100 µM
TGI [29]: > 100 µM
TGI [30]: > 100 µM
TGI [31]: 50.5 µM
TGI [32]: > 100 µM
TGI [33]: > 100 µM
TGI [34]: > 100 µM
TGI [35]: > 100 µM
TGI [36]: > 100 µM
TGI [37]: > 100 µM
TGI [38]: > 100 µM
TGI [39]: > 100 µM
TGI [40]: > 100 µM
TGI [41]: > 100 µM
TGI [42]: > 100 µM
TGI [43]: > 100 µM
TGI [44]: > 100 µM
TGI [45]: > 100 µM
TGI [46]: > 100 µM
TGI [47]: > 100 µM
TGI [48]: > 100 µM
TGI [49]: > 100 µM
TGI [50]: > 100 µM
TGI [51]: > 100 µM
TGI [52]: > 100 µM
TGI [53]: 50.7 µM

Cc1csc(-n2nc(C)cc2C)n1
TGI [1]: > 100 µM
TGI [2]: > 100 µM
TGI [3]: > 100 µM
TGI [4]: > 100 µM
TGI [5]: > 100 µM
TGI [6]: > 100 µM
TGI [7]: > 100 µM
TGI [8]: > 100 µM
TGI [9]: > 100 µM
TGI [10]: > 100 µM
TGI [11]: > 100 µM
TGI [12]: > 100 µM
TGI [13]: > 100 µM
TGI [14]: > 100 µM
TGI [15]: > 100 µM
TGI [16]: > 100 µM
TGI [17]: > 100 µM
TGI [18]: > 100 µM
TGI [19]: > 100 µM
TGI [20]: > 100 µM
TGI [22]: > 100 µM
TGI [54]: > 100 µM
TGI [23]: > 100 µM
TGI [55]: > 100 µM
TGI [24]: > 100 µM
TGI [25]: > 100 µM
TGI [26]: > 100 µM
TGI [27]: > 100 µM
TGI [28]: > 100 µM
TGI [29]: > 100 µM
TGI [30]: > 100 µM
TGI [31]: > 100 µM
TGI [32]: > 100 µM
TGI [33]: > 100 µM
TGI [34]: > 100 µM
TGI [35]: > 100 µM
TGI [36]: > 100 µM
TGI [37]: > 100 µM
TGI [38]: > 100 µM
TGI [39]: > 100 µM
TGI [40]: > 100 µM
TGI [41]: > 100 µM
TGI [42]: > 100 µM
TGI [43]: > 100 µM
TGI [44]: > 100 µM
TGI [45]: > 100 µM
TGI [46]: > 100 µM
TGI [56]: > 100 µM
TGI [47]: > 100 µM
TGI [48]: > 100 µM
TGI [49]: > 100 µM
TGI [57]: > 100 µM
TGI [50]: > 100 µM
TGI [51]: > 100 µM
TGI [52]: > 100 µM
TGI [53]: > 100 µM
